What was measured:
[1] = tested on: tail bleeding time of the mouse; experiment: evaluation of bleeding risk, tail bleeding time; type: in vivo, C57BL/6 mice; details: 80 mg/kg by gavage; 3, 6 and 12 hours after administration; mice
Description: This embodiment relates to an evaluation of bleeding risk of 3,4,7-trihydroxyisoflavone and 3-methoxydaidzein.
Each group included 8 male C57BL/6 (18-20 g). The test sample group and the control group were administered by gavage. After 3, 6 and 12 hours of administration, the mice were placed into a self-made special holder to make the tails pass through a trimmed 1 mL pipette tip. 5 mm of the tail tip was cut off with a sterilized razor blade, and the mouse tail was immediately immersed into normal saline at 37° C. The bleeding time of the tail was observed by using the bloodstream stop time as an indicator.

mouse-tail thrombus = experiment: carrageenan-induced mouse-tail thrombosis model; type: in vivo, Kunming mice; details: 24 h; for rate of thrombus inhibition versus dose: gavage 33, 100 and 300 μmol/kg; for rate of thrombus inhibition versus dose / inhibition of thrombosis in mouse tail versus negative control: carrageenan 40 mg/kg i.p.
Description: This embodiment relates to a carrageenan-induced mouse-tail thrombosis model.
The experiment animals, male Kunming mice, each with a body weight of 20-25 g, were randomly divided into groups (n=10) after fed for one week. The first group was a DMSO control group, the sample groups were gavaged with 3,4,7-trihydroxyisoflavone and 3-methoxydaidzein at concentrations respectively of 33, 100 and 300 μmol/kg, and the positive control was gavaged with 300 μmol/kg clopidogrel. 30 min after intragastric administration, carrageenan (type I, Sigma) was injected intraperitoneally into the mice at a dose of 40 mg/kg. Since the rate of thrombosis was >90% at a low temperature, the feeding temperature was 18° C. After 24 h, the mean length of thrombosis was determined according to the color change of the tail skin.

Healthy human platelets = experiment: ADP-induced platelet aggregation in PRP; type: cell-based; details: 70 μmol/L ADP; for concentration dependence of inhibition of ADP-induced platelet aggregation: FIGS. 3 and 4
Description: Healthy human platelets were diluted with plasma to 2.5×10^8 platelets per mL. 300 μL of plasma-rich platelets was taken, added into different concentrations of samples at 37° C. and maintained at this temperature for 5 min, then added with 70 μmol/L ADP to induce aggregation, and an aggregation curve within 5 min was plotted on a platelet aggregation instrument. Platelet aggregation without sample treatment was used as a control.
300 μM of 3-methoxydaidzein could inhibit about 50% of platelet aggregation, while 100 μM of 3,4,7-trihydroxyisoflavone could inhibit about 50% of platelet aggregation.

washed human platelets = experiment: collagen-induced platelet aggregation in washed human platelets; type: cell-based; details: 0.6 μg/mL collagen
Description: The collagen-induced platelet aggregation was detected by using washed human platelets. […] The platelet washing method was as follows: a. 1.4 mL platelets (concentrated platelet plasma) were poured into each 1.5 mL EP tube, and centrifuged at 400 g under room temperature for 5 min, and the supernatant was discarded; b. the platelets in each tube were resuspended with 0.5 mL of a tyrode A solution, and two tubes of resuspended platelets were combined into a new 1.5 mL EP tube, mixed well and centrifuged at 400 g under room temperature for 5 min; c. the platelets in each tube were resuspended with 1 mL of the tyrode A solution, transferred into a new EP tube, and centrifuged at room temperature at 400 g under room temperature for 5 min; d. the platelets in each tube were resuspended with 1 mL of a tyrode B solution, and the platelets were adjusted to an appropriate concentration with the tyrode B solution.

In the case of O=c1c(-c2ccc(O)c(O)c2)coc2cc(O)ccc12 [3,4,7-trihydroxyisoflavone], the “tail bleeding activity versus non-administrated group (FIG. 8)” value [1] is reported as “did not show any significant bleeding activity”, the “average thrombus length compared with clopidogrel” value (mouse-tail thrombus; gavage 300 μmol/kg, compared with 300 μmol/kg clopidogrel) is reported as “shorter than that of the group gavaged with 300 μmol/kg of clopidogrel” and the “rate of thrombus inhibition versus dose” value (mouse-tail thrombus) is reported as “increased along with the increase of concentration”. The “inhibition of thrombosis in mouse tail versus negative control” value (mouse-tail thrombus; oral 100 μmol/kg) was “significantly inhibit”, the “concentration dependence of inhibition of ADP-induced platelet aggregation” value (Healthy human platelets) was “gradient-dependent manner” and the inhibition at 100 µM (Healthy human platelets; Homo sapiens, Platelet, 100 μM compound) was ~50%. For the same compound, the “concentration dependence of inhibition of collagen-induced platelet aggregation” value (washed human platelets; FIGS. 1 and 2) was “gradient-dependent manner” and the “inhibition of platelet aggregation” value (washed human platelets; 20 μM compound, washed human platelets) was “completely inhibit”.
COc1cc(-c2coc3cc(O)ccc3c2=O)ccc1O [3-methoxydaidzein] was tested, and the “tail bleeding activity versus non-administrated group (FIG. 9)” value [1] was “did not show any significant bleeding activity”, the “rate of thrombus inhibition versus dose” value (mouse-tail thrombus) was “increased along with the increase of concentration” and the “inhibition of thrombosis in mouse tail versus negative control” value (mouse-tail thrombus; oral 300 μmol/kg) was “significantly inhibit”. For the same compound, the “concentration dependence of inhibition of ADP-induced platelet aggregation” value (Healthy human platelets) was “gradient-dependent manner”, the inhibition at 300 µM (Healthy human platelets; Homo sapiens, Platelet, 300 μM compound) was ~50% and the inhibition at 20 µM (washed human platelets; Platelet, 20 μM compound, washed human platelets) was ~50%.
For COC(=O)[C@H](c1ccccc1Cl)N1CCc2sccc2C1 [clopidogrel, reference compound], the “tail bleeding activity versus non-administrated group (FIG. 8)” value [1] was “increased bleeding significantly” and the “tail bleeding activity versus non-administrated group (FIG. 9)” value [1] was “increased bleeding significantly”.

Source: US20190183851A1, “USE OF 3,4,7-TRIHYDROXYISOFLAVONE OR 3-METHOXYDAIDZEIN IN PREPARATION OF DRUG FOR INHIBITING PLATELET AGGREGATION AND THROMBOSIS” (Kunming Institute of Zoology, Chinese Academy of Sciences, priority 2017, published 2019)
